Like-named read-outs stand apart in the source and are kept apart here.
Key:
[1] = molecular target: BTK (Homo sapiens, UniProt Q06187); experiment: Degradation of BTK protein in Namalwa cells (Western blot; DC50, Dmax); conditions: for DC50: cell line not given; for degradation of BTK protein: Namalwa B lymphocyte cells, various concentrations, 24 hours, Western blot
[2] = test system: JeKo-1 cells; experiment: Antiproliferative effect, MTS cell viability assay, JeKo-1 cells; format: cell-based; conditions: Homo sapiens; JeKo-1 mantle cell lymphoma cells; read-out: IC50 (anti-proliferation) JeKO-1 cells
Method in brief: (§1)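 MTS read-out, A490 of formazan from metabolically active cells; compound 0–10 μM (0, 0.001, 0.01, 0.1, 1, 10 μM), 72 h exposure.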

[3] = test system: Mino cells; experiment: Antiproliferative effect, MTS cell viability assay, Mino cells; format: cell-based; conditions: Homo sapiens, Mino mantle cell lymphoma cells, read-out: IC50 (anti-proliferation) Mino cells
Method in brief: as §1

[4] = read-out: DC50 (BTK degradation), concentration giving 50% reduction of BTK expression level
[5] = read-out: Dmax (BTK degradation)

BTK, sequence (Q06187 whole entry): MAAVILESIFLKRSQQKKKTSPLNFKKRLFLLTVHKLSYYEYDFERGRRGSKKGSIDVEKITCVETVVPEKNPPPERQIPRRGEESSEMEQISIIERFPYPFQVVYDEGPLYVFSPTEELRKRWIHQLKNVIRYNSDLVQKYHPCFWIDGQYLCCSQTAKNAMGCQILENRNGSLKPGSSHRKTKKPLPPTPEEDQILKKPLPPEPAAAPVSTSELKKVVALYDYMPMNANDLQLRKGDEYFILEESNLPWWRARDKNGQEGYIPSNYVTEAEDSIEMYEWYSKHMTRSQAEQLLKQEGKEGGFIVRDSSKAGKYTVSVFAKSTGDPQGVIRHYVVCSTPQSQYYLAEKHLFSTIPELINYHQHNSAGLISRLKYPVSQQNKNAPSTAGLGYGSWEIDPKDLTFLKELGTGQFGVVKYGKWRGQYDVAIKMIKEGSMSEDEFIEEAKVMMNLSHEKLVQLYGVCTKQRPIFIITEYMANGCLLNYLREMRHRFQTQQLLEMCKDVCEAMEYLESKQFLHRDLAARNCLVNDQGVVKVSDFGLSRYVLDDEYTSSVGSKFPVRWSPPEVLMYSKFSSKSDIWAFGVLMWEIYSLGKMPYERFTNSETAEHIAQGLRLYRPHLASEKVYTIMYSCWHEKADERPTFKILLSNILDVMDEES

Nc1ncnc2c1c(-c1ccc(Oc3ccccc3)cc1)nn2C1CCN(C2CCN(CCCCC#Cc3ccc(N4CCC(=O)NC4=O)cc3)CC2)CC1 [Compound 535, 1-(4-(6-(4-(4-amino-3-(4-phenoxyphenyl)-1H-pyrazolo[3,4-d]pyrimidin-1-yl)-[1,4′-bipiperidin]-1′-yl)hex-1-yn-1-yl)phenyl)dihydropyrimidine-2,4(1H,3H)-dione]
DC50 [1, 4]: > 50 nM
Dmax [1, 5]: > 50%
IC50 [2]: > 10000 nM
IC50 ([3]; MINO): > 10000 nM

NC(=O)c1c(-c2ccc(Oc3ccccc3)cc2)nn2c1NCCC2C1CCN(C2CCN(C(=O)N3CCC(CC4CCN(c5ccc6c(c5)C(=O)N(C5CCC(=O)NC5=O)C6=O)CC4)CC3)CC2)CC1 (stereo not shown) [Compound 353, 7-(1′-(4-((1-(2-(2,6-dioxopiperidin-3-yl)-1,3-dioxoisoindolin-5-yl)piperidin-4-yl)methyl)piperidine-1-carbonyl)-[1,4′-bipiperidin]-4-yl)-2-(4-phenoxyphenyl)-4,5,6,7-tetrahydropyrazolo[1,5-a]pyrimidine-3-carboxamide]
Dmax [1]: > 90%
DC50 ([1]; BTK degradation): 10 to 50 nM
IC50 [2]: 1000 to 10000 nM
IC50 ([3]; MINO): < 1000 nM

Nc1ncnc2c1c(-c1ccc(Oc3ccccc3)cc1)nn2C1CCN(CCN2CCC(CN3CCC(c4ccc(N5CCC(=O)NC5=O)cc4)CC3)C2)CC1 (stereo not shown) [Compound 548, 1-(4-(1-((1-(2-(4-(4-amino-3-(4-phenoxyphenyl)-1H-pyrazolo[3,4-d]pyrimidin-1-yl)piperidin-1-yl)ethyl)pyrrolidin-3-yl)methyl)piperidin-4-yl)phenyl)dihydropyrimidine-2,4(1H,3H)-dione]
DC50 [1, 4]: < 10 nM
Dmax [1, 5]: > 75%
IC50 [2]: < 1000 nM
IC50 ([3]; MINO): < 1000 nM

Nc1ncnc2c1c(-c1ccc(Oc3ccccc3)cc1)nn2C1CCN(C2CCN(CC3CN(CC4CN(c5ccc6c(c5)C(=O)N(C5CCC(=O)NC5=O)C6=O)C4)C3)CC2)CC1 (stereo not shown) [Compound 437]
degradation of BTK protein [1]: dose-dependent degradation
DC50 [1, 4]: 10 to 50 nM
Dmax [1, 5]: > 90%
IC50 [2]: 1000 to 10000 nM
IC50 ([3]; MINO): 1000 to 10000 nM

NC(=O)c1c(-c2ccc(Oc3ccccc3)cc2)nn2c1NCCC2C1CCN(C(=O)N2CCC(CN3CCC(c4ccc5c(c4)C(=O)N(C4CCC(=O)NC4=O)C5=O)CC3)CC2)CC1 (stereo not shown) [Compound 279, 7-(1-(4-((4-(2-(2,6-dioxopiperidin-3-yl)-1,3-dioxoisoindolin-5-yl)piperidin-1-yl)methyl)piperidine-1-carbonyl)piperidin-4-yl)-2-(4-phenoxyphenyl)-4,5,6,7-tetrahydropyrazolo[1,5-a]pyrimidine-3-carboxamide]
Dmax [1]: > 90%
DC50 ([1]; BTK degradation): 10 to 50 nM
IC50 [2]: 1000 to 10000 nM
IC50 ([3]; MINO): 1000 to 10000 nM

NC(=O)c1c(-c2ccc(Oc3ccccc3)cc2)nn2c1NCC[C@H]2C1CCN(C(=O)N2CCC(CC3CCN(c4ccc5c(c4)C(=O)N(C4CCC(=O)NC4=O)C5=O)CC3)CC2)CC1 (stereo partly drawn) [Compound 293, (7S)-7-(1-(4-((1-(2-(2,6-dioxopiperidin-3-yl)-1,3-dioxoisoindolin-5-yl)piperidin-4-yl)methyl)piperidine-1-carbonyl)piperidin-4-yl)-2-(4-phenoxyphenyl)-4,5,6,7-tetrahydropyrazolo[1,5-a]pyrimidine-3-carboxamide]
Dmax [1]: > 90%
DC50 ([1]; BTK degradation): 10 to 50 nM
IC50 [2]: 1000 to 10000 nM
IC50 ([3]; MINO): < 1000 nM

NC(=O)c1c(-c2ccc(Oc3ccccc3)cc2)nn2c1NCCC2C1CCN(C(=O)N2CCN(CCN3CCC(c4ccc5c(c4)CN(C4CCC(=O)NC4=O)C5=O)CC3)CC2)CC1 (stereo not shown) [Compound 288, 7-(1-(4-(2-(4-(2-(2,6-dioxopiperidin-3-yl)-1-oxoisoindolin-5-yl)piperidin-1-yl)ethyl)piperazine-1-carbonyl)piperidin-4-yl)-2-(4-phenoxyphenyl)-4,5,6,7-tetrahydropyrazolo[1,5-a]pyrimidine-3-carboxamide]
Dmax [1]: > 75%
DC50 ([1]; BTK degradation): 10 to 50 nM
IC50 [2]: 1000 to 10000 nM
IC50 ([3]; MINO): 1000 to 10000 nM

Nc1ncnc2c1c(-c1ccc(Oc3ccccc3)cc1)nn2C1CCN(C2CCN(C(=O)N3CCN(CC4CCN(c5ccc6c(c5)C(=O)N(C5CCC(=O)NC5=O)C6=O)CC4)CC3)CC2)CC1 (stereo not shown) [Compound 241, 5-(4-((4-(4-(4-amino-3-(4-phenoxyphenyl)-1H-pyrazolo[3,4-d]pyrimidin-1-yl)-[1,4′-bipiperidine]-1′-carbonyl)piperazin-1-yl)methyl)piperidin-1-yl)-2-(2,6-dioxopiperidin-3-yl)isoindoline-1,3-dione]
Dmax [1]: > 90%
DC50 ([1]; BTK degradation): 10 to 50 nM
IC50 [2]: 1000 to 10000 nM
IC50 ([3]; MINO): 1000 to 10000 nM

Nc1ncnc2c1c(-c1ccc(Oc3ccccc3)cc1)nn2C1CCN(CC2CCN(CC3CCN(c4ccc5c(c4)CN(C4CCC(=O)NC4=O)C5=O)CC3)CC2)CC1 (stereo not shown) [Compound 200, 3-(5-(4-((4-((4-(4-amino-3-(4-phenoxyphenyl)-1H-pyrazolo(3,4-d)pyrimidin-1-yl)piperidin-1-yl)methyl)piperidin-1-yl)methyl)piperidin-1-yl)-1-oxoisoindolin-2-yl)piperidine-2,6-dione]
Dmax [1]: < 50%
DC50 ([1]; BTK degradation): > 50 nM
degradation of BTK protein [1]: dose-dependent degradation
IC50 [2]: 1000 to 10000 nM
IC50 [3]: 1000 to 10000 nM

NC(=O)c1c(-c2ccc(Oc3ccccc3)cc2)nn2c1NCCC2C1CCN(C2CCN(C(=O)N3CCN(Cc4ccc5c(c4)C(=O)N(C4CCC(=O)NC4=O)C5=O)CC3)CC2)CC1 (stereo not shown) [Compound 339, 7-(1′-(4-((2-(2,6-dioxopiperidin-3-yl)-1,3-dioxoisoindolin-5-yl)methyl)piperazine-1-carbonyl)-[1,4′-bipiperidin]-4-yl)-2-(4-phenoxyphenyl)-4,5,6,7-tetrahydropyrazolo[1,5-a]pyrimidine-3-carboxamide]
Dmax [1]: > 50%
DC50 ([1]; BTK degradation): > 50 nM
IC50 [2]: > 10000 nM
IC50 ([3]; MINO): > 10000 nM

NC(=O)c1c(-c2ccc(Oc3ccccc3)cc2)nn2c1NCCC2C1CCN(C2CCN(C(=O)N3CCC(N4CCN(c5ccc6c(c5)CN(C5CCC(=O)NC5=O)C6=O)CC4)CC3)CC2)CC1 (stereo not shown) [Compound 342, 7-(1′-(4-(4-(2-(2,6-dioxopiperidin-3-yl)-1-oxoisoindolin-5-yl)piperazin-1-yl)piperidine-1-carbonyl)-[1,4′-bipiperidin]-4-yl)-2-(4-phenoxyphenyl)-4,5,6,7-tetrahydropyrazolo[1,5-a]pyrimidine-3-carboxamide]
Dmax [1]: > 90%
DC50 ([1]; BTK degradation): < 10 nM
IC50 [2]: < 1000 nM
IC50 ([3]; MINO): < 1000 nM

Nc1ncnc2c1c(-c1ccc(Oc3ccccc3)cc1)nn2C1CCN(C2CCN(C(=O)N3CCN(CCN4CCN(c5ccc6c(c5)CN(C5CCC(=O)NC5=O)C6=O)CC4)CC3)CC2)CC1 (stereo not shown) [Compound 246, 3-(5-(4-(2-(4-(4-(4-amino-3-(4-phenoxyphenyl)-1H-pyrazolo[3,4-d]pyrimidin-1-yl)-[1,4′-bipiperidine]-1′-carbonyl)piperazin-1-yl)ethyl)piperazin-1-yl)-1-oxoisoindolin-2-yl)piperidine-2,6-dione]
Dmax [1]: > 75%
DC50 ([1]; BTK degradation): 10 to 50 nM
IC50 [2]: 1000 to 10000 nM
IC50 ([3]; MINO): 1000 to 10000 nM

Nc1ncnc2c1c(-c1ccc(Oc3ccccc3)cc1)nn2C1CCN(C2CCN(C(=O)N3CCC(CCCC4CCN(c5ccc6c(c5)CN(C5CCC(=O)NC5=O)C6=O)CC4)CC3)CC2)CC1 (stereo not shown) [Compound 266, 3-(5-(4-(3-(1-(4-(4-amino-3-(4-phenoxyphenyl)-1H-pyrazolo[3,4-d]pyrimidin-1-yl)-[1,4′-bipiperidine]-1′-carbonyl)piperidin-4-yl)propyl)piperidin-1-yl)-1-oxoisoindolin-2-yl)piperidine-2,6-dione]
Dmax [1]: > 75%
DC50 ([1]; BTK degradation): 10 to 50 nM
IC50 [2]: > 10000 nM
IC50 ([3]; MINO): 1000 to 10000 nM

NC(=O)c1c(-c2ccc(Oc3ccccc3)cc2)nn2c1NCCC2C1CCN(C2CCN(CCC3CCN(c4ccc5c(c4)C(=O)N(C4CCC(=O)NC4=O)C5=O)CC3)CC2)CC1 (stereo not shown) [Compound 309, 7-(1′-(2-(1-(2-(2,6-dioxopiperidin-3-yl)-1,3-dioxoisoindolin-5-yl)piperidin-4-yl)ethyl)-[1,4′-bipiperidin]-4-yl)-2-(4-phenoxyphenyl)-4,5,6,7-tetrahydropyrazolo[1,5-a]pyrimidine-3-carboxamide]
Dmax [1]: > 75%
DC50 ([1]; BTK degradation): 10 to 50 nM
IC50 [2]: > 10000 nM
IC50 ([3]; MINO): > 10000 nM

Nc1ncnc2c1c(-c1ccc(Oc3ccccc3)cc1)nn2[C@@H]1CCCN(CCNC(=O)NC2CCC(=O)NC2=O)C1 (stereo partly drawn) [Compound 519, 1-(2-((R)-3-(4-amino-3-(4-phenoxyphenyl)-1H-pyrazolo[3,4-d]pyrimidin-1-yl)piperidin-1-yl)ethyl)-3-(2,6-dioxopiperidin-3-yl)urea]
DC50 [1, 4]: 10 to 50 nM
Dmax [1, 5]: > 75%
IC50 [2]: 1000 to 10000 nM
IC50 ([3]; MINO): > 10000 nM

NC(=O)c1c(-c2ccc(Oc3ccccc3)cc2)nn2c1NCC[C@H]2C1CCN(C(=O)N2CCC(CN3CCC(c4ccc5c(c4)CN(C4CCC(=O)NC4=O)C5=O)CC3)CC2)CC1 (stereo partly drawn) [Compound 296, (7S)-7-(1-(4-((4-(2-(2,6-dioxopiperidin-3-yl)-1-oxoisoindolin-5-yl)piperidin-1-yl)methyl)piperidine-1-carbonyl)piperidin-4-yl)-2-(4-phenoxyphenyl)-4,5,6,7-tetrahydropyrazolo[1,5-a]pyrimidine-3-carboxamide]
Dmax [1]: > 90%
DC50 ([1]; BTK degradation): < 10 nM
IC50 [2]: 1000 to 10000 nM
IC50 ([3]; MINO): < 1000 nM

NC(=O)c1c(-c2ccc(Oc3ccccc3)cc2)nn2c1NCCC2C1CCN(C2CCN(C(=O)N3CCC(N4CCC(c5ccc6c(c5)CN(C5CCC(=O)NC5=O)C6=O)CC4)CC3)CC2)CC1 (stereo not shown) [Compound 348, 7-(1′-(4-(2-(2,6-dioxopiperidin-3-yl)-1-oxoisoindolin-5-yl)-[1,4′-bipiperidine]-1′-carbonyl)-[1,4′-bipiperidin]-4-yl)-2-(4-phenoxyphenyl)-4,5,6,7-tetrahydropyrazolo[1,5-a]pyrimidine-3-carboxamide]
Dmax [1]: > 90%
DC50 ([1]; BTK degradation): < 10 nM
IC50 [2]: < 1000 nM
IC50 ([3]; MINO): < 1000 nM

— patent US12139492B2 (Endotarget Inc., priority 2021, dated 2024)
